This assay deals with HCV pseudoparticles. As to the kind of experiment: HCV pseudoparticle infection assay (luciferase reporter, Huh7 cells). Format: cell-based, HCV (genotype 1b E1 and E2 envelope). The note with it: Hepatitis C virus, genotype 1b, Huh-7, 48 h, HCV pseudoparticles (genotype 1b), luciferase activity 2 days after infection. (In a reporter assay the amount or activity of a reporter protein is the signal.)

As a reminder, the EC50 is the concentration at which the effect is half-maximal. A low value points to a more potent agent.

Each structure is given as a SMILES string.

Under “class”, `CC(F)(F)CC(=O)NS(=O)(=O)CCNC(=O)c1ccc(Nc2nc(NC3(c4ccc(Cl)cc4)CC3)nc(OCC(F)(F)F)n2)cc1` [Example 4003] gave an EC50 of 0.5 to 100 nM.

In the case of `Cc1cccc(C(=O)N2CCN(c3nc(Nc4ccc(C(=O)NS(=O)(=O)C5(CN(C)C)CC5)cc4)nc(OCC(F)(F)F)n3)CC2)c1` [Example 8038], the EC50 (class) was 1000 to 5000 nM. Where the note is “class”, `CC(C)NCCS(=O)(=O)NC(=O)c1ccc(Nc2nc(NC3(c4ccc(Cl)cc4)CC3)nc(OCC(F)(F)F)n2)cc1` [Example 1035] gave an EC50 of 0.5 to 100 nM. As for `CS(=O)(=O)NC(=O)CNC(=O)c1ccc(Nc2nc(NC3(c4ccc(Cl)cc4)CC3)nc(OCC(F)(F)F)n2)cc1` [Example 2009], the midpoint of the response, the EC50, lay at 97 nM. The EC50 (class) is 0.5 to 100 nM. Regarding `CN(C)S(=O)(=O)NC(=O)CCNC(=O)c1ccc(Nc2nc(NC3(c4ccc(Cl)cc4)CC3)nc(OCC(F)(F)F)n2)cc1` [Example 2022], where the note is “class”, the EC50 fell in the range of 0.5 to 100 nM. The same measure, in the same setting: under `O=C(CCCNC(=O)c1ccc(Nc2nc(NC3(c4ccc(Cl)cc4)CC3)nc(OCC(F)(F)F)n2)cc1)NS(=O)(=O)C1CC1` [Example 2024] stands 0.5 to 100 nM.

Turning to `O=C(NS(=O)(=O)c1ccc(Nc2nc(NC3(c4ccc(Cl)cc4)CC3)nc(OCC(F)(F)F)n2)cc1)C1(CN2CCOCC2)CC1` [Example 3003], it took 822 nM to reach a half-maximal effect (EC50). Where the note is “class”, the EC50 fell in the range of 100 to 1000 nM.

Take `CN(C)S(=O)(=O)NC(=O)CCCCNC(=O)c1ccc(Nc2nc(NC3(c4ccc(Cl)cc4)CC3)nc(OCC(F)(F)F)n2)cc1` [Example 2030]: the EC50 (class) lay within 0.5 to 100 nM.

`CNC(=O)OCC1(S(=O)(=O)NC(=O)c2ccc(Nc3nc(NC4(c5ccc(Cl)cc5)CC4)nc(OCC(F)(F)F)n3)cc2)CC1` [Example 1026] yielded an EC50 of 103 nM. In addition, the concentration for a half-maximal effect (EC50) (class) was in the range of 100 to 1000 nM. As for `CCCC1(S(=O)(=O)NC(=O)C(C)(C)CNC(=O)c2ccc(Nc3nc(NC4(c5ccc(Cl)cc5)CC4)nc(OCC(F)(F)F)n3)cc2)CC1` [Example 2092], under “class”, the EC50 is 0.5 to 100 nM. Take `O=C(NCC1(CN2CCCC2)CC1)c1ccc(Nc2nc(NC3(c4ccc(C(=O)NS(=O)(=O)C5CC5)cc4)CC3)nc(OCC(F)(F)F)n2)cc1` [Example 7001, N-(cyclopropylsulfonyl)-4-(1-(4-(4-((1-(pyrrolidin-1-ylmethyl)cyclopropyl)methylcarbamoyl)phenylamino)-6-(2,2,2-trifluoroethoxy)-1,3,5-triazin-2-ylamino)cyclopropyl)benzamide]: the EC50 (class) is 0.5 to 100 nM. As to `C[C@@H](NC(=O)CCCNC(=O)c1ccc(Nc2nc(NC3(c4ccc(Cl)cc4)CC3)nc(OCC(F)(F)F)n2)cc1)C(=O)NS(=O)(=O)C1CC1` [Example 2053], the EC50 (class) is 0.5 to 100 nM. Consider `O=C(CCCCNC(=O)c1ccc(Nc2nc(NC3(c4ccc(Cl)cc4)CC3)nc(OCC(F)(F)F)n2)cc1)NC1(C(=O)NS(=O)(=O)C2CC2)CC1` [Example 2029], for which the EC50 (class) fell in the range of 0.5 to 100 nM. Same read-out and setting: under `CCS(=O)(=O)NC(=O)[C@@]1(NC(=O)CCCNC(=O)c2ccc(Nc3nc(NC4(c5ccc(Cl)cc5)CC4)nc(OCC(F)(F)F)n3)cc2)C[C@H]1C1CC1(F)F` (some centres unmarked) [Example 2047] stands 0.5 to 100 nM; under `Cc1ccc(C(=O)N2CCN(c3nc(Nc4ccc(C(=O)NS(=O)(=O)C5(CN(C)C)CC5)cc4)nc(OCC(F)(F)F)n3)CC2)cc1` [Example 8027], 1000 to 5000 nM. Same read-out and setting: under `C[C@H](NC(=O)CCCNC(=O)c1ccc(Nc2nc(NC3(c4ccc(Cl)cc4)CC3)nc(OCC(F)(F)F)n2)cc1)C(=O)NS(=O)(=O)C1CC1` [Example 2057] stands 0.5 to 100 nM. In turn, `O=C(NS(=O)(=O)C1(Cc2ccccc2)CC1)c1ccc(Nc2nc(NC3(c4ccc(Cl)cc4)CC3)nc(OCC(F)(F)F)n2)cc1` [Example 8014] displayed an EC50 of 12.7 nM. Moreover, the EC50 (class) lay within 0.5 to 100 nM. `O=C(CCCNC(=O)c1ccc(Nc2nc(NC3(c4ccc(Cl)cc4)CC3)nc(OCC(F)(F)F)n2)cc1)NCCC(=O)N[C@]1(C(=O)NS(=O)(=O)C2CC2)C[C@H]1C1CC1` [Example 2064]: under “class”, the EC50 lay within 0.5 to 100 nM. On the same count and under the same terms, under `CC(C)(C)OC(=O)N1C[C@@H](NC(=O)c2ccc(Nc3nc(NC4(c5ccc(Cl)cc5)CC4)nc(OCC(F)(F)F)n3)cc2)C[C@@H]1C(=O)NS(=O)(=O)C1CC1` [Example 5000] stands 0.5 to 100 nM.

For the setting “class”, `O=C(NCCS(=O)(=O)NC(=O)c1ccc(Nc2nc(NC3(c4ccc(Cl)cc4)CC3)nc(OCC(F)(F)F)n2)cc1)c1ccccc1` [Example 1037] had an EC50 of 0.5 to 100 nM. As for `CN(C)CC1(S(=O)(=O)NC(=O)c2ccc(Nc3nc(NC4(c5ccc(Cl)cc5)CC4)nc(OCC(F)(F)F)n3)cc2)CC1` [Example 1012], the midpoint of the response, the EC50, lay at 0.25 nM. For the setting “class”, the EC50 was in the range of 0.5 to 100 nM. `O=C(NCC1(C(=O)N[C@]2(C(=O)NS(=O)(=O)C3CC3)C[C@H]2C2CC2)CC1)c1ccc(Nc2nc(NC3(c4ccc(Cl)cc4)CC3)nc(OCC(F)(F)F)n2)cc1` [Example 2066] gave an EC50 (class) of 0.5 to 100 nM. For the compound `CC(C)S(=O)(=O)NC(=O)[C@@H](C)NC(=O)CCCNC(=O)c1ccc(Nc2nc(NC3(c4ccc(Cl)cc4)CC3)nc(OCC(F)(F)F)n2)cc1` [Example 2052], the EC50 (class) fell in the range of 0.5 to 100 nM. Same read-out and setting: for `COc1ccc(S(=O)(=O)N2CCN(c3nc(Nc4ccc(C(=O)NS(=O)(=O)C5(CN(C)C)CC5)cc4)nc(OCC(F)(F)F)n3)CC2)cc1` [Example 8035] the value was 1000 to 5000 nM; for `CC(C)(CNC(=O)c1ccc(Nc2nc(NC3(c4ccc(Cl)cc4)CC3)nc(OCC(F)(F)F)n2)cc1)C(=O)NS(=O)(=O)C1CCC1` [Example 2089], 0.5 to 100 nM; for `CC(C)S(=O)(=O)NC(=O)COc1ccc(C2(Nc3nc(Nc4ccc(C(=O)NCC5(CN6CCCC6)CC5)cc4)nc(OCC(F)(F)F)n3)CC2)cc1` [Example 6000, 4-(4-(1-(4-(2-(1-methylethylsulfonamido)-2-oxoethoxy)phenyl)cyclopropylamino)-6-(2,2,2-trifluoroethoxy)-1,3,5-triazin-2-ylamino)-N-((1-(pyrrolidin-1-ylmethyl)cyclopropyl)methyl)benzamide], 0.5 to 100 nM. Same read-out and setting: for `CN(C)CC1(S(=O)(=O)NC(=O)c2ccc(Nc3nc(OCC(F)(F)F)nc(N4CCN(S(=O)(=O)C5CC5)CC4)n3)cc2)CC1` [Example 8025] the value was 1000 to 5000 nM. In the case of `O=C(CN1CCCC1=O)NCC1(C(=O)NS(=O)(=O)c2ccc(Nc3nc(NC4(c5ccc(Cl)cc5)CC4)nc(OCC(F)(F)F)n3)cc2)CC1` [Example 3008], the EC50 stood at 976 nM. For the same compound, the EC50 (class) fell in the range of 100 to 1000 nM. For `C=CS(=O)(=O)NC(=O)CCCNC(=O)c1ccc(Nc2nc(NC3(c4ccc(Cl)cc4)CC3)nc(OCC(F)(F)F)n2)cc1` [Example 2017] the same measures were 3.2 nM and 0.5 to 100 nM. Consider `O=C(NS(=O)(=O)c1ccccc1)c1ccc(Nc2nc(NC3(c4ccc(Cl)cc4)CC3)nc(OCC(F)(F)F)n2)cc1` [Example 8011], for which, under “class”, the EC50 lay in the range of 0.5 to 100 nM.

Turning to `O=C(NS(=O)(=O)c1ccc(F)cc1)c1ccc(Nc2nc(NC3(c4ccc(Cl)cc4)CC3)nc(OCC(F)(F)F)n2)cc1` [Example 8013], the EC50 (class) lay within 0.5 to 100 nM. Where the note is “class”, `O=C(NS(=O)(=O)C1CC1)c1ccc(Nc2nc(NC3(c4ccc(Cl)cc4)CC3)nc(OCC(F)(F)F)n2)cc1` [Example 1001] showed an EC50 of 0.5 to 100 nM. Still for that read-out and setting: for `CN(C)S(=O)(=O)NC(=O)C(C)(C)CNC(=O)c1ccc(Nc2nc(NC3(c4ccc(Cl)cc4)CC3)nc(OCC(F)(F)F)n2)cc1` [Example 2093] the value was 0.5 to 100 nM; for `CC(C)S(=O)(=O)NC(=O)CCNC(=O)c1ccc(Nc2nc(NC3(c4ccc(Cl)cc4)CC3)nc(OCC(F)(F)F)n2)cc1` [Example 2020], 0.5 to 100 nM.

The values are drawn from patent US8765944B2, “Compounds for the treatment of hepatitis C” (priority 2010, dated 2014).
